Test results published in article PMC8815882, “Screening the pandemic response box identified benzimidazole carbamates, Olorofim and ravuconazole as promising drug candidates for the treatment of eumycetoma” (PLoS Neglected Tropical Diseases, 2022).
In brackets after ≈: the same amount, converted by molar mass. Where two headings read alike, the source gives them in different places.

Key:
[1] = system: M. mycetomatis genome strain MM55; experiment: CLSI M38-A2 based in vitro susceptibility screening (XTT or resazurin), growth at fixed concentration; type: cell-based, Madurella mycetomatis; conditions: Madurella mycetomatis; for Percent fungal survival at 100 µM: replicate 2, M. mycetomatis MM55, read-out: Percentage survival at 100um, 100 uM A (second replicate column)
M. mycetomatis MM55 = experiment: IC50 determination, 2-fold dilution series 16 to 0.03125 μM; type: cell-based, Madurella mycetomatis; conditions: for Drug static or cidal: M. mycetomatis; for IC90 / IC50: Madurella mycetomatis
[2] = system: ten different M. mycetomatis isolates; experiment: MIC / MIC50 determination (XTT) in ten M. mycetomatis isolates; type: cell-based, Madurella mycetomatis; conditions: Madurella mycetomatis
[3] = system: M. mycetomatis isolate MM55; experiment: M. mycetomatis grain infection model in G. mellonella larvae, survival; type: in vivo, Galleria mellonella; set-up: In vivo efficacy, Larvae survival %: concentration or dose not given beside the values; conditions: G. mellonella larvae infected with M. mycetomatis
[4] = mean of three, M. mycetomatis MM55, read-out: Percentage survival at 25um, 25 uM mean
[5] = replicate A, M. mycetomatis MM55, read-out: Percentage survival at 25um, 25 um A
[6] = replicate B, M. mycetomatis MM55, read-out: Percentage survival at 25um, 25 uM B
[7] = replicate C, M. mycetomatis MM55, read-out: Percentage survival at 25um, 25 uM C
[8] = mean of three, M. mycetomatis MM55, read-out: Percentage survival at 100um, 100 uM mean
[9] = replicate 1, M. mycetomatis MM55, read-out: Percentage survival at 100um, 100 uM A (first replicate column)
[10] = replicate 3, M. mycetomatis MM55, read-out: Percentage survival at 100um, 100 uM A (third replicate column)
[11] = MM55, mean of replicates, read-out: IC90 mean
[12] = MM55, replicate 1, read-out: IC90 1 um
[13] = MM55, replicate 2, read-out: IC90 2 um
[14] = MM55, replicate 3, read-out: IC90 3 um
[15] = over the tested M. mycetomatis isolates, read-out: MIC50 mean
[16] = isolate CBS247.48, read-out: MIC CBS247.48
[17] = isolate MM55, read-out: MIC MM55
[18] = isolate ParijsAl1, read-out: MIC ParijsAl1
[19] = isolate Peru72012, read-out: MIC Peru72012
[20] = MM55, Table 2, M. mycetomatis MM55, read-out: IC50
[21] = MM55, replicate 1, read-out: IC50 1 um
[22] = MM55, replicate 2, read-out: IC50 2 um
[23] = MM55, replicate 3, read-out: IC50 3 um
[24] = median MIC over ten M. mycetomatis isolates, no asterisk, read-out: MIC50
[25] = isolate MM14, read-out: MIC MM14
[26] = isolate MM45, read-out: MIC MM45

IC90 (M. mycetomatis MM55; [11]) [µM] | IC90 (M. mycetomatis MM55; [12]) [µM] | IC90 (M. mycetomatis MM55; [13]) [µM] | IC90 (M. mycetomatis MM55; [14]) [µM] | MIC50 [2, 15] [µM] | MIC [2, 16] [µM] | MIC [2, 17] [µM] | MIC ([2]; isolate P1, read-out: MIC P1) [µM] | MIC [2, 18] [µM] | MIC [2, 19] [µM] | MIC ([2]; isolate So1, read-out: MIC So1) [µM] | SMILES | activity at 25 µM [1, 4] [%] | activity at 25 µM [1, 5] [%] | activity at 25 µM [1, 6] [%] | activity at 25 µM [1, 7] [%] | activity at 100 µM [1, 8] [%] | activity at 100 µM [1, 9] [%] | Percent fungal survival at 100 µM [1] [%] | activity at 100 µM [1, 10] [%] | Drug static or cidal (M. mycetomatis MM55) | further results
1.23 | 0.75 | 2.6 | 0.34 | 0.125 (≈ 0.052 µg/mL) | 0.125 (≈ 0.052 µg/mL) | 0.25 (≈ 0.104 µg/mL) | 0.06 (≈ 0.025 µg/mL) | > 0.03 | 0.06 (≈ 0.025 µg/mL) | 0.125 (≈ 0.052 µg/mL) | Clc1ccc(COC(Cn2ccnc2)c2ccc(Cl)cc2Cl)c(Cl)c1 (stereo not shown) [MMV002722] | 1.83 | 0.653 | 1.37 | 3.48 | 8.62 | 1.56 | 6.95 | 17.4 | Cidal | MIC ([2]; isolate i1, read-out: MIC i1): > 0.03 µM; MIC ([2]; isolate i11, read-out: MIC i11): 0.5 µM (≈ 0.208 µg/mL); In vivo efficacy, Enhanced survival compared to control? [3]: no; In vivo efficacy, Larvae survival % [3]: 8.9%
4.26 | 3.95 | 4.4 | 4.42 | 2 (≈ 1.02 µg/mL) | 1 (≈ 0.509 µg/mL) | 2 (≈ 1.02 µg/mL) | 2 (≈ 1.02 µg/mL) | 4 (≈ 2.04 µg/mL) | 4 (≈ 2.04 µg/mL) | 2 (≈ 1.02 µg/mL) | CCCCC(CC)CNC(=N)NC(=N)NCCCCCCNC(=N)NC(=N)NCC(CC)CCCC (stereo not shown) [MMV396785, Alexidine, reference compound] | 1.02 | -0.617 | 1.64 | 2.05 | 7.33 | -1.99 | 7.87 | 16.1 | Static | IC50 (M. mycetomatis MM55; [20]): 2.56 µM; IC50 (M. mycetomatis MM55; MM55, mean of replicates, read-out: IC50 mean): 2.56 µM; IC50 (M. mycetomatis MM55; [21]): 2.16 µM; IC50 (M. mycetomatis MM55; [22]): 2.7 µM; IC50 (M. mycetomatis MM55; [23]): 2.83 µM; MIC50 [2, 24]: 2 µM (≈ 1.02 µg/mL); MIC [2, 25]: 2 µM (≈ 1.02 µg/mL); MIC [2, 26]: 2 µM (≈ 1.02 µg/mL); MIC ([2]; isolate i1, read-out: MIC i1): 2 µM (≈ 1.02 µg/mL); MIC ([2]; isolate i11, read-out: MIC i11): 2 µM (≈ 1.02 µg/mL); In vivo efficacy, Enhanced survival compared to control? [3]: no; In vivo efficacy, Larvae survival % [3]: 2.2%
21.8 | 20.3 | 22.6 | 22.6 | 16 (≈ 5.88 µg/mL) | > 16 | 16 (≈ 5.88 µg/mL) | 16 (≈ 5.88 µg/mL) | > 16 | 16 (≈ 5.88 µg/mL) | > 16 | O=S(=O)(Nc1ccc(-n2cccc2)cc1)c1ccc(Cl)c(Cl)c1 [MMV1505642] | 0.829 | -1.91 | 1.17 | 3.22 | 1.07 | -0.332 | -0.607 | 4.16 | Cidal | IC50 (M. mycetomatis MM55; [20]): 7.35 µM; IC50 (M. mycetomatis MM55; [21]): 3.55 µM; IC50 (M. mycetomatis MM55; [22]): 8.05 µM; IC50 (M. mycetomatis MM55; [23]): 10.5 µM; MIC50 [2, 24]: 16 µM (≈ 5.88 µg/mL); MIC [2, 25]: 16 µM (≈ 5.88 µg/mL); MIC [2, 26]: 8 µM (≈ 2.94 µg/mL); MIC ([2]; isolate i1, read-out: MIC i1): 16 µM (≈ 5.88 µg/mL); MIC ([2]; isolate i11, read-out: MIC i11): 16 µM (≈ 5.88 µg/mL)
